How the values were obtained:
[1] = tested on: ptosis induced by reserpine; experiment: Antagonism of ptosis induced by reserpine; format: in vivo, female mouse, CDI (Charles Rivers, France); details: reserpine 2 mg/kg intravenous, 1 hour; for ED50: Mus musculus, po, per os, read-out: Antagonism of ptosis induced by reserpine, ED 50
Description: The majority of antidepressants antagonize the ptosis induced by reserpine. This test described by Gouret [Journal de Pharmacologie (Paris), 1973, 4(1), 105-128] was made in the female mouse, CDI (Charles Rivers, France) weighing from 18 to 23 g. The reserpine causes a ptosis 1 hour after its intravenous administration; certain antidepressants, particularly the imipraminics, oppose this ptosis.
The following protocol has been chosen:
The substances to be studied were administered per os to batches of 10 mice. The reserpine was administered simultaneously by the intravenous route at the dose of 2 mg/kg. 1 hour after the administration of reserpine, the number of animals not presenting ptosis is noted.

[2] = tested on: hypothermia induced by reserpine; experiment: Antagonism of the hypothermia induced by reserpine; format: in vivo, female mice, CDI (Charles Rivers, France); details: reserpine 5 mg/kg i.p., 4 hours
Description: The majority of antidepressants antagonize the hypothermia induced by reserpine. This test was carried out according to the method described by HINO et Coll [Chem Pharm Bull 28 (9), 2618-2622, 1980] on female mice, CDI (Charles Rivers, France) weighing from 18 to 23 g.
(§1) The following protocol was chosen:
The substances to be studied are administered per os to batches of 10 mice, the controls receive the solvent along, simultaneously, the reserpine is administered i.p. at the dose of 5 mg/kg. The temperature of each animal is taken immediately before administration of the products to be tested and 4 hours afterwards. For each animal, the difference in temperature before and after treatment is calculated. The results are expressed in percentage of antagonism of the hypothermia observed in the controls.

Toxicity = format: in vivo; details: per os; for Toxicity: in words (atoxic at the stated dose)
[3] = Pharmacological trials on the central nervous system (tests A to E, overall statement); format: in vivo, female mice, CDI (Charles Rivers, France); details: overall statement on Table II
Description: The products according to the invention have been subjected to pharmacological trials with a view to determining their activity on the central nervous system.
The various tests to which the products have been subjected will be indicated hereinbelow. In all cases, the products under study were administered per os.

[4] = Porsolt test (despair reaction, reduction in immobilization time); format: in vivo, female mouse, CDI (Charles Rivers, France); details: per os, 1 hour before test
Description: This test was carried out in the female mouse, CDI (Charles Rivers, France) weighing from 18 to 23 g, according to the method described by Porsolt (Archives Internationales de Pharmacologie, 1977, 229, 327-336).
The principle of this test is as follows: when a mouse is placed in a narrow recipient, filled with water, it struggles and then, after 2 to 4 minutes, becomes still and floats on its stomach, its back rounded and its rear paws brought underneath its body; it makes only the few movements to enable it to hold its head out of the water. This is the so-called despair reaction.
Certain psychotherapeutics, particularly antidepressants, lengthen the time during which the mouse struggles.
as §1
The products to be studied were administered orally to batches of 10 mice. 1 hour later, the animals are placed in a narrow receipient (10×10×10 cm), filled with water up to a height of 6 cm, the temperature of the water being 24° C. The animals are left in the water for 6 minutes and the time during which the animal remains immobile between the second and the sixth minute is measured--the shorter the time, the more the substance is active.
The results are expressed as the reduction in the immobilization time with respect to controls.

toxicity of yohimbine = experiment: Potentialization of the toxicity of yohimbine; format: in vivo, female mice, CDI (Charles Rivers, France); details: Mus musculus, po, 18 h, read-out: Potentialization of yohimbine, ED 50
Description: The majority of antidepressants potentialize the toxicity of yohimbine. This test was carried out according to the method described by MALICK (in Antidepressants: Neurochemical Behavioural and Clinical Perspectives, eds S. J. Enna, J. B. Malick, E. Richelson, Raven Press, New York, pages 141-153) on female mice, CDI (Charles Rivers, France).
The substances to be studied are administered per os to batches of 10 mice. The yohimbine is administered i.p. 1 hour later at the dose of 30 mg/kg. Mortality is noted 18 hours later.

[5] = tested on: tremors induced by oxotremorine; experiment: Antagonism of the tremors induced by oxotremorine; format: in vivo, female mice, CDI (Charles Rivers, France); details: Mus musculus, po, 0.5 h; per os; oxotremorine 1 mg/kg per os at 60 mins., read 30 mins. later; read-out: Antagonism of oxotremorine, ED 50
Description: This test was carried out on female mice, CDI (Charles Rivers, France) weighing from 18 to 23 g.
as §1
The products to be studied are administered at time 0 by the oral route to batches of 10 mice. At time 60 mins., the oxotremorine is administered per os at the dose of 1 mg/kg.

[6] = 10 mg/kg, ** p < 0.01 (all but 40 460, which has *)
[7] = at 10 mg/kg per os, ** p < 0.01

| Structure (SMILES) | Antagonism of ptosis induced by reserpine, percentage ([1]; at 100 mg/kg per os) | Antagonism of hypothermia induced by reserpine, percentage of antagonism ([2]; at 100 mg/kg per os) | Toxicity (Toxicity) | Activity on the tests carried out [3] | Porsolt test: reduction in the immobilization time with respect to controls [4, 6] | ED50 [1] | Antagonism of hypothermia induced by reserpine, percentage of antagonism ([2]; at 20 mg/kg per os, ** p < 0.01) | ED50 (toxicity of yohimbine) | ED50 [5] | Toxicity: LD 80 (Toxicity) | Antagonism of hypothermia induced by reserpine, percentage of antagonism [2, 7] | Porsolt test: reduction in the immobilization time with respect to controls ([4]; 5 mg/kg, ** p < 0.01) | Toxicity: LD 40 (Toxicity) |
| --- | --- | --- | --- | --- | --- | --- | --- | --- | --- | --- | --- | --- | --- |
| OC1CCN(c2nc(-c3ccccc3Cl)c3cc(Cl)ccc3n2)CC1 [40 331, 6-chloro 4-(2-chlorophenyl) 2-(4-hydroxy 1-piperidinyl) quinazoline, reference compound] | 0% | -20% | Atoxic at 500 mg/kg | virtually inactive |  |  |  |  |  |  |  |  |  |
| CN1CCN(c2nc(-c3ccccc3Cl)c3cc(Cl)ccc3n2)CC1 [40 460] |  |  |  |  | -11% | 2.1 mg/kg | +71% | 5.4 mg/kg | 142 mg/kg | 1000 mg/kg |  |  |  |
| CN1CCN(c2nc(-c3ccccc3F)c3cc(Cl)ccc3n2)CC1 [40 468] |  |  | Atoxic at 1 g/kg |  | -61% | 0.98 mg/kg |  | 1.65 mg/kg | 50 mg/kg |  | +73% |  |  |
| CN1CCN(c2nc(-c3ccccc3Cl)c3cc([N+](=O)[O-])ccc3n2)CC1 [40 498, 2-(1-methyl 4-piperazinyl) 4-(2-chlorophenyl) 6-nitro quinazoline] |  |  | Atoxic at 1 g/kg |  | -31% | 2.8 mg/kg |  | 7.8 mg/kg | 43.5 mg/kg |  | +68% |  |  |
| Fc1ccccc1-c1nc(N2CCNCC2)nc2ccc(Cl)cc12 [41 125] |  |  |  |  |  | 0.48 mg/kg |  | 0.74 mg/kg | 9.5 mg/kg |  | +81% | -46 | 1000 mg/kg |
| CCCN1CCN(c2nc(-c3ccccc3F)c3cc(Cl)ccc3n2)CC1 [41 128] |  |  | Atoxic at 1 g/kg |  |  | 6.2 mg/kg |  | 1.7 mg/kg |  |  | +62% | -31 |  |
| CN(C)CCCN1c2ccccc2CCc2ccccc21 [Imipramine, reference compound] |  |  |  |  | -30% | 2.4 mg/kg |  |  | 12 mg/kg |  | +59% |  |  |

Source: patent US4540696A, “1-Piperazinyl 4-phenylquinazoline compounds having antidepressant properties and drugs containing same” (Sanofi S.A., priority 1982, dated 1985)
